Reference: patent publication US4401604A, “Process for preparing thiosulfenamide derivatives of N-phosphonomethylglycine triesters” (Monsanto Company, priority 1981, dated 1983)

How the values were obtained:
Assay in all cases: Pre-emergent herbicidal activity
Assay type in all cases: in vivo
Settings in all cases: Table III; 11.2 kg/h; 2 WAT
Velvetleaf = system: Velvetleaf
Outline: (§1)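 Soil-incorporated test: seeds/propagules on compacted soil, covering layer admixed with compound at known active-ingredient amount; bottom watering via pan apertures; wet sand bench, ~2 wk, ordinary sunlight; emergence counted vs untreated control → activity index from average % control.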

Morningglory = system: Morningglory
Outline: as §1

Lambsquarters = system: Lambsquarters
Outline: as §1

Canada Thistle = system: Canada Thistle
Outline: as §1

Quackgrass = system: Quackgrass
Outline: as §1

Downy Brome = system: Downy Brome
Outline: as §1

Barnyardgrass = system: Barnyardgrass
Outline: as §1

Cocklebur = system: Cocklebur
Outline: as §1

Yellow Nutsedge = system: Yellow Nutsedge
Outline: as §1

Smartweed = system: Smartweed
Outline: as §1

Johnsongrass = system: Johnsongrass
Outline: as §1

COC(=O)CN(CP(=O)(Oc1ccccc1)Oc1ccccc1)SSC(C)C [I, Glycine, N-[(diphenoxyphosphinyl)methyl]-N-[(1-methylethyl)dithio]-, methyl ester]
pre-emergent herbicidal activity index (Velvetleaf): 0 (0-24% control) | pre-emergent herbicidal activity index (Morningglory): 1 (25-49% control) | pre-emergent herbicidal activity index (Lambsquarters): 3 (75-100% control) | pre-emergent herbicidal activity index (Canada Thistle): 3 (75-100% control) | pre-emergent herbicidal activity index (Quackgrass): 3 (75-100% control) | pre-emergent herbicidal activity index (Downy Brome): 2 (50-74% control) | pre-emergent herbicidal activity index (Barnyardgrass): 2 (50-74% control) | pre-emergent herbicidal activity index (Cocklebur): 1 (25-49% control) | pre-emergent herbicidal activity index (Yellow Nutsedge): 3 (75-100% control) | pre-emergent herbicidal activity index (Smartweed): 2 (50-74% control) | pre-emergent herbicidal activity index (Johnsongrass): 0 (0-24% control)
